These results are taken from patent publication US20080300281A1, “Inhibition of p38 Kinase Activity Using Aryl and Heteroaryl Substituted Heterocyclic Ureas” (priority 1997, published 2008).

For `CC(C)(C)c1cc(NC(=O)Nc2cccc(Cl)c2Cl)c(-c2ccncc2)o1` [Entry 38, N-(2-(4-Pyridinyl)-5-tert-butyl-3-furyl)-N′-(2,3-dichlorophenyl)urea], the melting point (in general, the temperature, or range, at which the solid turns liquid) lay in the range of 195 to 198 °C.
